US20250388575A1, “HETEROBIFUNCTIONAL COMPOUNDS AND METHODS OF TREATING DISEASE” (Halda Therapeutics OpCo, Inc., priority 2022, published 2025)
Like-named read-outs stand apart in the source and are kept apart here.

Experiments:
VCaP cells = assay: Cellular growth inhibition assay for VCaP cells, CellTiter-Glo; assay type: cell-based, human; conditions: VCaP cells, 72 hours, CellTiter-Glo, read-out: GI50
Method: VCaP cells were purchased from American Type Cell Culture (ATCC Cat #CRL2876) and then seeded on poly-D-lysine coated, black clear-bottom 384-well plates at 5000/well in 25 μL Dulbecco's Modified Eagle Medium (DMEM) supplemented with 10% w/w Fetal bovine serum (FBS) and 1% w/w Pen-Strep. Pen-Strep is a commercially available mixture of penicillin G and streptomycin, which is used in mammalian cell culture media to prevent bacterial contamination. Dulbecco's Modified Eagle Medium (DMEM) supplemented with 10% w/w fetal bovine serum (FBS) and 1% w/w Pen-Strep is herein referred to as Treatment Medium. Following seeding of cells in the plates, the plates were spun at 300×g for 30 seconds, then equilibrated to room temperature for 30 minutes, and then deposited in a humidified tissue culture incubator maintained at 37° C. with 5% CO2.
(§1) At 24 hours after seeding of the cells, dilutions of test compound were prepared in DMSO and dissolved in Treatment Medium, to achieve a final DMSO concentration of 0.5% w/w, thereby providing the Test Compound Solution. A 25 μL aliquot of the Test Compound Solution was added to cells in the well plates. An equal volume of a solution containing DMSO and Treatment Medium was used as a negative control. Following treatment of cells with Test Compound Solution or said equal volume of a solution containing DMSO and Treatment Medium, the plates were spun at 300×g for 30 seconds, and then left in an incubator for 72 hours.
(§2) At the end of the treatment duration, cell viability was quantified with CellTiter-Glo 2.0 reagent (Promega Cat #G9243). For this purpose, plates were equilibrated to room temperature for 30 minutes, and then 25 μL of CellTiter-Glo 2.0 reagent was added to cells in the plate wells. Plates were then agitated on a shaker for two minutes at 500 rpm and subsequently incubated at room temperature for 10 minutes. Following incubation, the plates were spun at 3000×g for 30 seconds, then sealed with an optical adhesive cover, and luminescence readings were measured with an EnVision Plate Reader.
(§3) Data was normalized using zero luminescence for baseline. A four-parameter non-linear regression curve fit was applied to dose-response data in GraphPad Prism data analysis software to determine the half-maximal growth inhibitory concentration (GI50) for each test compound.

[1] = tested on: T-Rex 293 cell line SC3 cells lacking increased expression of androgen receptor protein; assay: Cellular growth inhibition, T-Rex 293 SC3 cells lacking increased androgen receptor expression (no doxycycline), CellTiter-Glo; assay type: cell-based; conditions: T-Rex 293 SC3 cells lacking increased androgen receptor expression (not exposed to doxycycline), 72 hours, CellTiter-Glo; read-out: GI50
Method: (§4) The following types of cells were prepared for this experiment: (i) a T-Rex 293 cell line having increased expression of androgen receptor protein due to exposure to doxycycline and (ii) a T-Rex 293 cell line lacking increased expression of androgen receptor protein. Ability of the test compounds to inhibit proliferation of the foregoing cell types was evaluated according to the procedures set forth below.
(§5) The doxycycline-inducible androgen receptor protein expressing cell line was established using the following protocol: T-Rex 293 cells were purchased from Invitrogen (Cat #R71007) and transfected using Lipofectamine 2000 with the wild-type androgen receptor protein sequence cloned into the pcDNA4/TO vector. Transfected cells were selected using 400 μg/mL Zeocin (Invitrogen Cat #R25001). Following selection, single clones were raised and maintained in Dulbecco's Modified Eagle Medium (DMEM) supplemented with 10% w/w Tetracycline-free fetal bovine serum (FBS) and 250 μg/mL Zeocin. Clones were analyzed for expression of androgen receptor protein in the presence and absence of 10 ng/ml doxycycline (Sigma Cat #D9891), and a single doxycycline-inducible clone (hereinafter “SC3”) was selected for use in downstream assays.
(§6) The SC3 cells were seeded on poly-D-lysine coated, black clear-bottom 384-well plates at 2500/well, in 25 μL Phenol Red Free Dulbecco's Modified Eagle Medium (DMEM) supplemented with 10% w/w charcoal-dextran treated fetal bovine serum (FBS) and 1% w/w pen-strep, with or without 10 ng/mL doxycycline. Pen-Strep is a commercially available mixture of penicillin G and streptomycin, which is used in mammalian cell culture media to prevent bacterial contamination. Phenol Red Free Dulbecco's Modified Eagle Medium (DMEM) supplemented with 10% w/w charcoal-dextran treated fetal bovine serum (FBS) and 1% w/w pen-strep, with or without 10 ng/mL doxycycline is herein referred to as Treatment Medium. Following seeding of cells in the plates, the plates were spun at 300×g for 30 seconds, then equilibrated to room temperature for 30 minutes, and then deposited in a humidified tissue culture incubator maintained at 37° C. with 5% CO2.
as §1, §2, §3

[2] = tested on: T-Rex 293 cell line SC3 cells having increased expression of androgen receptor protein; assay: Cellular growth inhibition, T-Rex 293 SC3 cells with increased androgen receptor expression (doxycycline), CellTiter-Glo; assay type: cell-based; conditions: T-Rex 293 SC3 cells with increased androgen receptor expression (exposed to 10 ng/mL doxycycline), 72 hours, CellTiter-Glo; read-out: GI50
Method: as §4, §5, §6, §1, §2, §3

T47D cells = assay: Cellular growth inhibition assay for T47D cells, CellTiter-Glo; assay type: cell-based, human; conditions: 72 hours treatment, CellTiter-Glo 2.0
Method: T47D cells were purchased from American Type Cell Culture (ATCC Cat #HTB-133) and then seeded on poly-D-lysine coated, black clear-bottom 384-well plates at 3000/well in 25 μL Dulbecco's Modified Eagle Medium (DMEM) supplemented with 10% w/w Fetal bovine serum (FBS), 0.2 units/mL recombinant human insulin (Gibco Cat #12585014), and 1% w/w Pen-Strep. Pen-Strep is a commercially available mixture of penicillin G and streptomycin, which is used in mammalian cell culture media to prevent bacterial contamination. Dulbecco's Modified Eagle Medium (DMEM) supplemented with 10% w/w fetal bovine serum (FBS), 0.2 units/mL recombinant human insulin, and 1% w/w Pen-Strep is herein referred to as Treatment Medium. Following seeding of cells in the plates, the plates were spun at 300×g for 30 seconds, then equilibrated to room temperature for 30 minutes, and then deposited in a humidified tissue culture incubator maintained at 37° C. with 5% CO2.
as §1
as §2, with “Reader (Perkin Elmer).” for “Reader.”
as §3

| SMILES | GI50 (VCaP cells; Homo sapiens) | GI50 (T47D cells; Homo sapiens) | GI50 (VCaP cells) | GI50 (T47D cells) | GI50 [1] | GI50 [2] |
| --- | --- | --- | --- | --- | --- | --- |
| CCS(=O)(=O)Nc1ccc(Oc2cccc(CCC3CCN(c4ccc(C(=O)N[C@H]5CC[C@H](Oc6ccc(C#N)c(Cl)c6)CC5)nn4)CC3)c2F)c(-c2cn(C)c(=O)c3[nH]ccc23)c1 [I-21] | < 0.5 µM | < 0.5 µM | – | – | > 3 µM | < 0.5 µM |
| CCS(=O)(=O)Nc1ccc(Oc2cccc(COC3CCN(c4ccc(C(=O)N[C@H]5CC[C@H](Oc6ccc(C#N)c(Cl)c6)CC5)nn4)CC3)c2F)c(-c2cn(C)c(=O)c3[nH]ccc23)c1 [I-26] | < 0.5 µM | < 0.5 µM | – | – | > 3 µM | < 0.5 µM |
| CCS(=O)(=O)c1ccc(Oc2ccc(OC3CC4(C3)CN(c3ccc(C(=O)N[C@H]5CC[C@H](Oc6ccc(C#N)c(Cl)c6)CC5)nn3)C4)c(F)c2)c(-c2cn(C)c(=O)c3[nH]ccc23)c1 [I-44] | < 0.5 µM | < 0.5 µM | – | – | < 0.5 µM | < 0.5 µM |
| CCS(=O)(=O)c1ccc(Oc2c(F)cc(CCC3CCN(c4ccc(C(=O)N[C@H]5CC[C@H](Oc6ccc(C#N)c(Cl)c6)CC5)nn4)CC3)cc2F)c(-c2cn(C)c(=O)c3[nH]ccc23)c1 [I-58] | – | – | < 0.5 µM | < 0.5 µM | > 3 µM | < 0.5 µM |
| CCS(=O)(=O)c1ccc(Oc2cccc(CCCC3CCN(c4ncc(C(=O)N[C@H]5CC[C@H](Oc6ccc(C#N)c(Cl)c6)CC5)cn4)CC3)c2)c(-c2cn(C)c(=O)c3[nH]ccc23)c1 [I-66] | – | – | < 0.5 µM | < 0.5 µM | < 0.5 µM | < 0.5 µM |
| CN(CCCCc1ccc(Oc2ccc(C(C)(C)O)cc2-c2cn(C)c(=O)c3[nH]ccc23)cc1)c1ccc(C(=O)N[C@H]2CC[C@H](Oc3ccc(C#N)c(Cl)c3)CC2)nn1 [I-122] | – | – | < 0.5 µM | < 0.5 µM | – | – |
| Cn1cc(-c2cc(C(C)(C)O)ccc2Oc2ccc(CCCC3CCN(c4ccc(C(=O)N[C@H]5CC[C@H](Oc6ccc(C#N)c(Cl)c6)CC5)nn4)CC3)cc2)c2cc[nH]c2c1=O [I-124] | < 0.5 µM | < 0.5 µM | – | – | – | – |
| Cn1cc(-c2cc(C(C)(C)O)ccc2OC2CC(OCC3CCN(c4ccc(C(=O)NC5CCC(Oc6ccc(C#N)c(Cl)c6)CC5)nn4)CC3)C2)c2ccccc2c1=O (stereo not shown) [I-247, N-[4-(3-chloro-4-cyano-phenoxy)cyclohexyl]-6-[4-[[3-[4-(1-hydroxy-1-methyl-ethyl)-2-(2-methyl-1-oxo-4-isoquinolyl)phenoxy]cyclobutoxy]methyl]-1-piperidyl]pyridazine-3-carboxamide] | < 0.5 µM | – | – | – | > 3 µM | < 0.5 µM |
| Cn1cc(-c2ccccc2Oc2ccc(OCC3CCN(c4ccc(C(=O)N[C@H]5CC[C@H](Oc6ccc(C#N)c(Cl)c6)CC5)nn4)CC3)cc2)c2cc[nH]c2c1=O [I-255, N-[4-(3-chloro-4-cyano-phenoxy)cyclohexyl]-6-[4-[[4-[2-(6-methyl-7-oxo-1H-pyrrolo[2,3-c]pyridin-4-yl)phenoxy]phenoxy]methyl]-1-piperidyl]pyridazine-3-carboxamide] | < 0.5 µM | – | – | – | > 3 µM | < 0.5 µM |

Further lines, with some results ahead:

| GI50 (VCaP cells; Homo sapiens) | GI50 (T47D cells; Homo sapiens) | GI50 (VCaP cells) | GI50 (T47D cells) | SMILES | GI50 [1] | GI50 [2] |
| --- | --- | --- | --- | --- | --- | --- |
| < 0.5 µM | < 0.5 µM | – | – | CCS(=O)(=O)Nc1ccc(Oc2cccc(N3CC(N4CCN(c5ccc(C(=O)N[C@H]6CC[C@H](Oc7ccc(C#N)c(Cl)c7)CC6)nn5)CC4)C3)c2F)c(-c2cn(C)c(=O)c3[nH]ccc23)c1 [I-12] | > 3 µM | < 0.5 µM |
| – | – | < 0.5 µM | < 0.5 µM | CCS(=O)(=O)c1ccc(Oc2ccc(OCC3CCN(c4ccc(C(=O)N[C@H]5CC[C@H](Oc6ccc(C#N)c(Cl)c6)CC5)nn4)CC3)cc2)c(-c2cn(C)c(=O)c3[nH]ccc23)c1 [I-41] | < 0.5 µM | < 0.5 µM |
| – | – | < 0.5 µM | < 0.5 µM | CCS(=O)(=O)c1ccc(Oc2ccc(OCC3CCN(c4ccc(C(=O)N[C@H]5CC[C@H](Oc6ccc(C#N)c(Cl)c6)CC5)nn4)CC3)cc2F)c(-c2cn(C)c(=O)c3[nH]ccc23)c1 [I-43] | < 0.5 µM | < 0.5 µM |
| 0.5 to 1.5 µM | < 0.5 µM | – | – | CCS(=O)(=O)c1ccc(Oc2cccc(CCCOC3CC4(C3)CN(c3cnc(C(=O)N[C@H]5CC[C@H](Oc6ccc(C#N)c(Cl)c6)CC5)cn3)C4)c2F)c(-c2cn(C)c(=O)c3[nH]ccc23)c1 [I-48] | < 0.5 µM | < 0.5 µM |
| – | – | < 0.5 µM | 1.5 to 3 µM | CCS(=O)(=O)c1ccc(Oc2cc(F)c(CCC3CCN(c4ccc(C(=O)N[C@H]5CC[C@H](Oc6ccc(C#N)c(Cl)c6)CC5)nn4)CC3)c(F)c2)c(-c2cn(C)c(=O)c3[nH]ccc23)c1 [I-49] | < 0.5 µM | < 0.5 µM |
| – | – | < 0.5 µM | < 0.5 µM | CCS(=O)(=O)c1ccc(Oc2ccc(C3CC4(CCN(c5ccc(C(=O)N[C@H]6CC[C@H](Oc7ccc(C#N)c(Cl)c7)CC6)nn5)CC4)C3)cc2)c(-c2cn(C)c(=O)c3[nH]ccc23)c1 [I-60] | < 0.5 µM | < 0.5 µM |
| < 0.5 µM | < 0.5 µM | – | – | CCS(=O)(=O)c1ccc(Oc2ccc(CCCC3CCN(c4ccc(C(=O)N[C@H]5CC[C@H](Oc6ccc(C#N)c(Cl)c6)CC5)nn4)CC3)cc2)c(-c2cn(C)c(=O)c3[nH]ccc23)c1 [I-61] | < 0.5 µM | < 0.5 µM |
| < 0.5 µM | – | – | – | CCS(=O)(=O)c1ccc(Oc2ccc(CCC3CCN(c4ccc(C(=O)NC5CCC(Oc6ccc(C#N)c(Cl)c6)CC5)nn4)CC3)c(F)c2)c(-c2cn(C)c(=O)c3ccccc23)c1 (stereo not shown) [I-243, N-[4-(3-chloro-4-cyano-phenoxy)cyclohexyl]-6-[4-[2-[4-[4-ethylsulfonyl-2-(2-methyl-1-oxo-4-isoquinolyl)phenoxy]-2-fluoro-phenyl]ethyl]-1-piperidyl]pyridazine-3-carboxamide] | > 3 µM | < 0.5 µM |
